Experimental data as given in ChEMBL document CHEMBL4673243, “Discovery of 9-Cyclopropylethynyl-2-((S)-1-[1,4]dioxan-2-ylmethoxy)-6,7-dihydropyrimido[6,1-a]isoquinolin-4-one (GLPG1205), a Unique GPR84 Negative Allosteric Modulator Undergoing Evaluation in a Phase II Clinical Trial” (J Med Chem, 2020).
Values after ≈ are worked out from the molar mass of the structure shown.

What was measured:
in vitro [1] = conditions: human, cryopreserved hepatocytes
[2] = Plasma protein binding in rat at 5 uM measured after 4 hrs by LC-MS/MS analysis
Cytochrome P450 2C19 = Cytochrome P450 2C19 (Homo sapiens, UniProt P33261); assay: Inhibition of CYP2C19 in human liver microsomes using probe substrate and in presence of co-factor preincubated for 20 mins followed by substrate addition by LC-MS/MS analysis
Cytochrome P450 2C19, sequence (P33261 whole entry): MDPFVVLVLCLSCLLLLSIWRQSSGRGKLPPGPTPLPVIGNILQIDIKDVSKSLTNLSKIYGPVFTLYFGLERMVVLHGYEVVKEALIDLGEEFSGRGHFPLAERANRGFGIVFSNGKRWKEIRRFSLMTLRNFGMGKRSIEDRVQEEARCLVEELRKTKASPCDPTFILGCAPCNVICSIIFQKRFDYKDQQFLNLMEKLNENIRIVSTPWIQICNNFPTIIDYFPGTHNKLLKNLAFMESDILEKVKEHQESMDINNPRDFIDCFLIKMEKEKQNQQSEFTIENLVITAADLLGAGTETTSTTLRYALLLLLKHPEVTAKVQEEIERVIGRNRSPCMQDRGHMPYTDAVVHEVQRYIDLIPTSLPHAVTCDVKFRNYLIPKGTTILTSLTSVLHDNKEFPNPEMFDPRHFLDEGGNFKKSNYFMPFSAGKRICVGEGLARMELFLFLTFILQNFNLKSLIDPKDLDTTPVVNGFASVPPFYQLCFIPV

[3] = Volume of distribution at steady state in male Sprague-Dawley rat at 0.5 mg/kg, iv administered as single bolus dose using PEG-200/NaCl formulation measured after 24 hrs by LC-MS/MS analysis; conditions: in vivo
in vivo [4] = conditions: CD1, mouse, po, 5 mg/kg
in vitro [5] = conditions: human, liver microsomes
[6] = Inhibition of embelin-induced migration of human neutrophils preincubated for 30 mins followed by embelin addition and measured after 1 hr by ATPlite luminescence assay; conditions: Neutrophil
Cytochrome P450 3A4 [7] = target: T1, Cytochrome P450 3A4 (Homo sapiens, UniProt P08684); assay: Time-dependent inhibition of CYP3A4 in human liver microsomes using midazolam as substrate and in presence of co-factor by LC-MS/MS analysis
T1 sequence (P08684 whole entry): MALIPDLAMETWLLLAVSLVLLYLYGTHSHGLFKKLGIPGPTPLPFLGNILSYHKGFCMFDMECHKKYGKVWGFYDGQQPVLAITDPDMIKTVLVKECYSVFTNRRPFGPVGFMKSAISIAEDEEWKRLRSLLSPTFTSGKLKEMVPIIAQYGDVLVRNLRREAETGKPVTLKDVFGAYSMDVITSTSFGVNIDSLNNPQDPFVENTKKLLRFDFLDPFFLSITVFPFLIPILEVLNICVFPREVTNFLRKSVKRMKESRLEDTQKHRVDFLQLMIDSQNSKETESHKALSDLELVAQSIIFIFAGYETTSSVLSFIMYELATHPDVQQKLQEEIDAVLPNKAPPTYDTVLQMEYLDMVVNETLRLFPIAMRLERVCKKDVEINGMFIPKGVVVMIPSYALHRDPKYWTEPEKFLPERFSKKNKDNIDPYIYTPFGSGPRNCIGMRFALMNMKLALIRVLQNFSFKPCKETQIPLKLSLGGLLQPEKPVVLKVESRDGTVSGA

in vivo [8] = conditions: CD1, mouse, po, 5 mg/kg; remark: listed apart in the source
Description: Half-life in CD1 mouse at 5 mg/kg, po administered as single esophageal gavage dose post 12 hr fasting using PEG-200/water formulation measured after 24 hrs by LC-MS/MS analysis

in vivo [9] = conditions: CD1, mouse, iv, 1 mg/kg
in vivo [10] = conditions: Beagle, dog, po
[11] = Thermodynamic solubility of compound at pH 3; conditions: buffer
in vitro [12] = conditions: mouse, cryopreserved hepatocytes
in vivo [13] = conditions: male, Sprague-Dawley, rat, po
Cytochrome P450 3A4 [14] = target: T1, Cytochrome P450 3A4; assay: Inhibition of human CYP3A4 in human liver microsomes using testosterone as substrate and in presence of co-factor preincubated for 20 mins followed by substrate addition by LC-MS/MS analysis
in vivo [15] = conditions: male, Sprague-Dawley, rat, iv, 0.5 mg/kg
in vitro [16] = conditions: dog, cryopreserved hepatocytes
[17] = Inhibition of embelin-induced migration of rat neutrophils preincubated for 30 mins followed by embelin addition and measured after 1 hr by celltiter-glo assay; conditions: Neutrophil
in vivo [18] = conditions: Balb/c, mouse, plasma, po, 10 mg/kg
in vitro [19] = conditions: dog, liver microsomes
in vitro [20] = conditions: rat, cryopreserved hepatocytes
[21] = Clearance in CD1 mouse at 1 mg/kg, iv administered as single bolus dose using PEG-200/saline formulation measured after 24 hrs by LC-MS/MS analysis; conditions: in vivo
in vitro [22] = conditions: rat, liver microsomes
in vivo [23] = conditions: Balb/c, mouse, plasma, po, 10 mg/kg; remark: listed apart in the source
in vitro [24] = conditions: mouse, cryopreserved hepatocytes; remark: listed apart in the source
[25] = Plasma protein binding in mouse at 5 uM measured after 4 hrs by LC-MS/MS analysis
physchem = conditions: aqueous solution with 2% DMSO, pH 7.4
[26] = Thermodynamic solubility of compound at pH 7.4; conditions: buffer

Which results are given for `O=c1nc(OC[C@@H]2COCCO2)cc2n1CCc1cc(C#CC3CC3)ccc1-2` [GLPG-1205]?
CLint scaled at 1 µM (in vitro [1]): < 21.3 mL/min/kg; fraction unbound at 4 h, 5 µM [2]: 0.023; IC50 (Cytochrome P450 2C19): > 100000 nM; Vd at 24 h [3]: 1.2 L/kg; Cmax at 24 h (in vivo [4]): 4590 ng/mL; CLint scaled at 0.5 h, 1 µM (in vitro [5]): < 19.3 mL/min/kg; IC50 [6]: 11 nM; IC50 (Cytochrome P450 3A4 [7]): > 50000 nM; half-life at 24 h (in vivo [8]): 1.9 h; AUC(0-t) at 24 h (in vivo [9]): 1050 ng·h/mL; AUC(0-t) at 24 h (in vivo [10]): 2230 ng·h/mL; solubility thermodynamic [11]: 12.6 µg/mL (≈ 33.3 µM); CLint scaled at 1 µM (in vitro [12]): < 72.8 mL/min/kg; Tmax at 24 h (in vivo [13]): 1.5 h; IC50 (Cytochrome P450 3A4 [14]): > 50000 nM; AUC(0-t) at 24 h (in vivo [15]): 710 ng·h/mL; half-life at 1 µM (in vitro [16]): > 3.33 h; IC50 [17]: 111 nM; Tmax (in vivo [18]): 1 h; CLint scaled at 0.5 h, 1 µM (in vitro [19]): 89 mL/min/kg; half-life at 1 µM (in vitro [20]): > 3.33 h; clearance at 24 h [21]: 15 mL/min/kg; CLint scaled at 0.5 h, 1 µM (in vitro [22]): 66.7 mL/min/kg; AUC(0-t) at 24 h (in vivo [23]): 50400 ng·h/mL; half-life at 1 µM (in vitro [24]): > 3.33 h; fraction unbound at 4 h, 5 µM [25]: 0.022; solubility (physchem): 113 µg/mL (≈ 299 µM); solubility thermodynamic [26]: 7.75 µg/mL (≈ 20.5 µM)
